Experimental data reported in patent US20210127673A1, “HERBICIDES” (SYNGENTA PARTICIPATIONS AG, priority 2016, published 2021).

Columns and labels:
Type in all cases: in vivo
Conditions in all cases: 1000 g/ha, evaluated after 13 days
[1] = tested on: Triticum aestivium (TRZAW); assay: Post-emergence herbicidal activity, Triticum aestivium; parameters: key: 5=total damage to plant; 0=no damage to plant
How it was run: (§1)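 Pot-grown plants in standard soil were sprayed 8 days after sowing with active ingredient in acetone/water (50:50) containing 0.5% Tween 20. Glasshouse at 24/16 °C day/night, 14 h light, 65% humidity, watered twice daily. Damage scored after 13 days on 0 (none) to 5 (total) scale.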

[2] = tested on: Alopecurus myosuroides (ALOMY); assay: Post-emergence herbicidal activity, Alopecurus myosuroides; parameters: key: 5=total damage to plant; 0=no damage to plant
How it was run: as §1

[3] = tested on: Setaria faberi (SETFA); assay: Post-emergence herbicidal activity, Setaria faberi; parameters: key: 5=total damage to plant; 0=no damage to plant
How it was run: as §1

[4] = tested on: Echinochloa crus-galli (ECHCG); assay: Pre-emergence herbicidal activity, Echinochloa crus-galli; parameters: key: 5=total damage to plant; 0=no damage to plant
How it was run: (§2)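 Pre-emergence spray, 1 d after sowing; formulation acetone/water 50:50 + 0.5% Tween 20. Glasshouse 24/16 °C, 14 h light, 65% RH, watered twice daily. Damage scored day 13, 0 (none) to 5 (total).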

[5] = tested on: Triticum aestivium (TRZAW); assay: Pre-emergence herbicidal activity, Triticum aestivium; parameters: key: 5=total damage to plant; 0=no damage to plant
How it was run: as §2

[6] = tested on: Avena fatua (AVEFA); assay: Pre-emergence herbicidal activity, Avena fatua; parameters: key: 5=total damage to plant; 0=no damage to plant
How it was run: as §2

[7] = tested on: Setaria faberi (SETFA); assay: Pre-emergence herbicidal activity, Setaria faberi; parameters: key: 5=total damage to plant; 0=no damage to plant
How it was run: as §2

[8] = tested on: Lolium perenne (LOLPE); assay: Post-emergence herbicidal activity, Lolium perenne; parameters: key: 5=total damage to plant; 0=no damage to plant
How it was run: as §1

[9] = tested on: Echinochloa crus-galli (ECHCG); assay: Post-emergence herbicidal activity, Echinochloa crus-galli; parameters: key: 5=total damage to plant; 0=no damage to plant
How it was run: as §1

[10] = tested on: Lolium perenne (LOLPE); assay: Pre-emergence herbicidal activity, Lolium perenne; parameters: key: 5=total damage to plant; 0=no damage to plant
How it was run: as §2

[11] = tested on: Alopecurus myosuroides (ALOMY); assay: Pre-emergence herbicidal activity, Alopecurus myosuroides; parameters: key: 5=total damage to plant; 0=no damage to plant
How it was run: as §2

[12] = tested on: Avena fatua (AVEFA); assay: Post-emergence herbicidal activity, Avena fatua
How it was run: as §1

Compound | Control of TRAZW after post-emergence application (score 0-5) [1] | Control of ALOMY after post-emergence application (score 0-5) [2] | Control of SETFA after post-emergence application (score 0-5) [3] | Control of ECHCG after pre-emergence application (score 0-5) [4] | Control of TRAZW after pre-emergence application (score 0-5) [5] | Control of AVEFA after pre-emergence application (score 0-5) [6] | Control of SETFA after pre-emergence application (score 0-5) [7] | Control of LOLPE after post-emergence application (score 0-5) [8] | Control of ECHCG after post-emergence application (score 0-5) [9] | Control of LOLPE after pre-emergence application (score 0-5) [10] | Control of ALOMY after pre-emergence application (score 0-5) [11] | Control of AVEFA after post-emergence application (score 0-5) [12]
O=C(NOCC(F)F)Nc1ccc(-c2cncc(F)c2)nc1C(F)(F)F [Compound B110] | 0 | 0 | 4 | 3 | 0 | 0 | 4 | 1 | 3 | 0 | 0 | 3
CON(C)C(=O)Nc1ccc(-c2cncc(F)c2)nc1C(F)(F)F [Compound B111] | 0 | 0 | 4 | 3 | 0 | 2 | 3 | 1 | 3 | 0 | 0 | 2
CC(C)(C)OC(=O)Nc1ccc(-c2cncc(F)c2)nc1-c1ccccc1 [Compound B112, tert-butyl N-[6-(5-fluoro-3-pyridyl)-2-phenyl-3-pyridyl]carbamate] | 0 | 0 | 3 | 3 | 0 | 0 | 4 | 0 | 1 | 0 | 0 | 1
CC(C)(C)OC(=O)N(C(=O)OC(C)(C)C)c1ccc(-c2cncc(F)c2)nc1C(F)(F)F [Compound B113] | 2 | 1 | 5 | 5 | 0 | 3 | 5 | 3 | 5 | 1 | 1 | 4
CC(C)(C)OC(=O)N(C(=O)OC(C)(C)C)c1ccc(-c2cncc(F)c2)nc1C#N [Compound B114] | 1 | 0 | 5 | 5 | 0 | 1 | 5 | 3 | 5 | 1 | 0 | 4
CC(C)OC(=O)Nc1ccc(-c2cncc(F)c2)nc1C#N [Compound B115] | 1 | 1 | 5 | 4 | 0 | 2 | 5 | 3 | 5 | 0 | 0 | 4
O=C(Nc1ccc(-c2cncc(F)c2)nc1C(F)(F)F)N1CCS(=O)(=O)C1 [Compound B116, N-[6-(5-fluoro-3-pyridyl)-2-(trifluoromethyl)-3-pyridyl]-1,1-dioxo-1,3-thiazolidine-3-carboxamide] | 1 | 1 | 5 | 4 | 0 | 2 | 5 | 3 | 4 | 1 | 0 | 3
O=C(Nc1ccc(-c2cncc(F)c2)nc1C(F)(F)F)N1CC[S+]([O-])C1 (stereo not drawn) [Compound B117, N-[6-(5-fluoro-3-pyridyl)-2-(trifluoromethyl)-3-pyridyl]-1-oxo-1,3-thiazolidine-3-carboxamide] | 3 | 1 | 5 | 4 | 0 | 3 | 5 | 4 | 5 | 1 | 0 | 4
CC(C)(C#N)OC(=O)Nc1ccc(-c2cncc(F)c2)nc1C(F)(F)F [Compound B118] | 0 | 0 | 4 | 2 | 0 | 0 | 4 | 1 | 3 | 0 | 0 | 3
C=CCOC(=O)Nc1ccc(-c2cncc(F)c2)nc1C(F)(F)F [Compound B119] | 0 | 0 | 5 | 3 | 0 | 2 | 5 | 3 | 3 | 0 | 0 | 4
CN1COCN(c2ccc(-c3cncc(F)c3)nc2C(F)(F)F)C1=O [Compound B121, 3-[6-(5-fluoro-3-pyridyl)-2-(trifluoromethyl)-3-pyridyl]-5-methyl-1,3,5-oxadiazinan-4-one] | 0 | 0 | 5 | 2 | 0 | 0 | 4 | 2 | 3 | 0 | 0 | 3
